For 15 compounds, TGI and GI50 results are on record in PubChem BioAssay (NCI).

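1) Cells in 96-well plates. 2) Compound, 48 h, 5 concentrations. 3) Linear interpolation between surrounding doses. 4) Unreached endpoint = highest concentration. Abbreviation: GI50, concentration required for 50% inhibition of growth. The concentration for full growth arrest is given as TGI.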 Where a SMILES comes first, the peptide text is derived from it. Bridges are numbered along the chain shown (N, C = ends). Roman numbers before positions name the chains, in order. [ ]: non-standard residue; d: D form. The star is where a group is joined. Heptadecanoyl = CCCCCCCCCCCCCCCCC(=O)*; Phg = N[CH](C(=O)O)c1ccccc1

Holding throughout (assay): growth of human tumour cells (NCI), 48 h
In experiment [1] the test system is IGROV1 ovarian.
Experiment [2] has as its system DU-145 prostate.
For experiment [3], the system named is MDA-MB-231 breast.
Experiment [4] deals with NCI-H23 lung.
Experiment [5] deals with KM12 colon.
Experiment [6] deals with EKVX NSCLC.
For experiment [7], the system named is K-562 leukemia.
Experiment [8] relates to MCF7 breast.
The subject of experiment [9] is SF-539 CNS.
The test system of experiment [10] is MALME-3M melanoma.

On to `CCC(C)(C)c1ccc(Oc2cccc(C(=O)O)c2)cc1`, for which the TGI in experiment [1], in [2], in experiment [3], in experiment [4], in [5] and in [6] was above 100 µM in each case. Also, the TGI in experiment [7], in experiment [8], in [9] and in [10] was above 100 µM in each case.
For the compound `Cc1cccc(C(O)c2ccccn2)c1O` (stereo unspecified), the TGI in experiment [1], in experiment [2], in experiment [3], in experiment [4], in experiment [5] and in experiment [6] was above 100 µM in each case. The TGI in experiment [7], in experiment [8], in experiment [9] and in experiment [10] was above 100 µM each time.
`CO[C@H]1C[C@H](O[C@H]2CC[C@]3(C=O)[C@H]4CC[C@]5(C)[C@@H](C6=CC(=O)OC6)CC[C@]5(O)[C@@H]4CC[C@]3(O)C2)O[C@H](C)[C@H]1O[C@@H]1O[C@H](CO[C@@H]2O[C@H](CO)[C@@H](O)[C@H](O)[C@H]2O)[C@@H](O)[C@H](O)[C@H]1O`: the TGI in [1] was 0.825 µM; in experiment [2] it was 0.0413 µM; in [3], 2.1 µM; in [4], 0.0531 µM; in experiment [5], 0.515 µM; in [6], 0.0631 µM. Also, the TGI in experiment [7] is above 100 µM; in [8], 0.677 µM; in experiment [9], 0.12 µM; in experiment [10] it was 0.243 µM.
With `CC1=C/C(=C(/c2ccc(O)c(C)c2)c2ccccc2C(=O)O)C=CC1=O`, the TGI was found to be 34.1 µM in [1]; 35.6 µM in experiment [2]; 40.4 µM in [3]; 36.6 µM in experiment [4]; 36.6 µM in [5]; 36 µM in experiment [6]. The TGI in experiment [7] is 44.7 µM; in [8] it was 34.5 µM; in experiment [9], 35.2 µM; in experiment [10], 46.8 µM.
With `N#CC(C#N)=Cc1ccc(-c2ccc(-c3nc4ccccc4s3)cc2)s1`, the GI50 in [1] was 4.62 µM; in experiment [2], 17.7 µM; in [3], 16.1 µM; in [4], 18.1 µM; in [5], 19.9 µM; in [6], 29.6 µM. Further, the GI50 in experiment [7] is 17.8 µM; in experiment [8], 26.2 µM; in [9], 18.3 µM; in experiment [10], 16.6 µM. The TGI was 27.1 µM in experiment [1]; 44.8 µM in experiment [2]; 36.9 µM in experiment [3]; 52.9 µM in experiment [4]; 78.5 µM in experiment [5]; above 100 µM in experiment [6]. For the same compound, the TGI in experiment [7] was 57.4 µM; in experiment [8] it was above 100 µM; in experiment [9], 36.3 µM; in experiment [10] it was 54.5 µM.
As for `N.N.N.N.O=S(=O)([O-])[O-].[Co+3].[OH3+].[OH3+]`, the TGI in [1], in experiment [4], in [5], in experiment [6], in [7] and in experiment [9] was above 100 µM in each case. For the same compound, the TGI in [10] is above 100 µM.
In the case of `CCOC(=O)c1cc(Cl)ccc1OC(N)=O`, the TGI in [1], in experiment [4], in experiment [5], in experiment [6], in experiment [7] and in experiment [8] was above 100 µM throughout. Besides, the TGI in [9] is above 100 µM.
`O=C(CN1C(=O)c2ccccc2C1=O)OCC1CCCN2CCCCC12` (stereo unspecified): the TGI in experiment [2], in experiment [3], in experiment [4], in experiment [5], in experiment [6] and in [7] was above 100 µM in each case. Further, the TGI in experiment [8], in experiment [9] and in experiment [10] was above 100 µM throughout.
For the compound `CN(C)C(=S)SCc1ccccc1`, the TGI in [1], in experiment [2], in experiment [3], in experiment [4], in experiment [5] and in experiment [6] was above 100 µM throughout. Further, the TGI in experiment [8], in [9] and in experiment [10] was above 100 µM each time.
Turning to `C(=N/Nc1ccccn1)/c1cccnc1`, the TGI in experiment [1], in experiment [2], in [3], in experiment [4], in experiment [5] and in experiment [6] was above 100 µM in each case. Besides, the TGI in experiment [7], in experiment [8], in experiment [9] and in experiment [10] was above 100 µM in each case.
`Clc1ccc(CSCc2ccc(Cl)cc2Cl)c(Cl)c1`: the TGI in experiment [1], in experiment [2], in experiment [3], in experiment [4], in experiment [5] and in [6] was above 100 µM throughout. The TGI in experiment [7] was above 100 µM; in experiment [8], 86.9 µM; in experiment [9], above 100 µM; in experiment [10], 72.5 µM.
On to `CC(C)(C)C1=NN=C2c3ccccc3C(=O)C21` (stereo unspecified), for which the TGI in experiment [1], in experiment [2], in experiment [3], in experiment [4], in experiment [5] and in experiment [6] was above 100 µM in each case. In addition, the TGI in [7], in experiment [8], in [9] and in [10] was above 100 µM throughout.
Regarding `C/C(=C\c1ccc2c(c1)OCO2)[N+](=O)[O-]`, the TGI was 5.89 µM in experiment [1]; 8.05 µM in experiment [2]; above 100 µM in experiment [3]; 7.54 µM in experiment [4]; 16.4 µM in [6]; above 100 µM in [7]. The figures for the TGI in experiment [9] and in experiment [10] were 9.24 µM and 5.68 µM, respectively.
Turning to `O=C1c2ccc3ccccc3c2CCC1N1CCCCC1` (stereo unspecified), the TGI in [1] came out at 29.5 µM; in experiment [2], 30.3 µM; in experiment [3], 30.6 µM; in experiment [4], 40.2 µM; in experiment [5], 31.6 µM; in experiment [6], 51.7 µM. Further, the TGI in experiment [7] is 35 µM; in [8], above 100 µM; in [9], 28.8 µM; in [10] it was 31.4 µM.
In the case of `CCCCCCCCCCCCCCCCC(=O)N1CCCC1C(=O)NCC(=O)NC(C(=O)N1CCCC1C(=O)NC(CO)C(=O)NC(Cc1ccc(O)cc1)C(=O)NC(CCCCNC(=O)C1CCCN1C(=O)C(CCCCN)NC(=O)C(CCCCN)NC(=O)C(CCCCN)NC(=O)C(CCCNC(=N)N)NC(=O)C(CCCCN)NC(=O)C(N)C(C)C)C(=O)NC(CC(C)C)C(=O)NC(CCCNC(=N)N)C(=O)N1CCCC1C(=O)NCC(N)=O)c1ccccc1` (stereo unspecified) (I: Heptadecanoyl-PG[Phg]PSYKLRPG-NH2 / II: H-VKRKKKP; amide I:7-II:C; configuration not given here), the GI50 in experiment [1] is 24.8 µM; in experiment [2], 24.6 µM; in [3] it was 17.7 µM; in experiment [4] it was 31.5 µM; in [6] it was 27.7 µM; in experiment [7] it was 10.2 µM. Further, the GI50 in experiment [8] was 23.6 µM; in experiment [9], 34.4 µM. Moreover, the TGI in [1] was 75.7 µM; in experiment [2], 61.5 µM; in experiment [3], 36.1 µM; in experiment [4], above 100 µM; in [6] it was 84.4 µM; in experiment [7], 86.8 µM. Besides, the TGI in experiment [8] and in [9] was above 100 µM each time.
